Results reported in patent publication EP1210336B1, “SUBSTITUTED BENZIMIDAZOLES AS NON-NUCLEOSIDE INHIBITORS OF REVERSE TRANSCRIPTASE” (THE UNITED STATES OF AMERICA, as represented by the …, priority 1999, dated 2001).
Where “and” joins values, the source holds several entries; their conditions need not be identical. Equal values may be shown once. Read-outs that look alike come from different tables or passages of the source.

Experiments:
WT virus (NL4-3) = assay: microbe, parasite or virus in culture; type: cell-based, HIV-1; details: read-out: EC50
In short: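 CEM-SS cells (5 x 10^3/well) infected with HIV-1 at an MOI giving complete killing by day 6 (e.g., 0.01-0.05), with serial half-log compound dilutions in triplicate. After 6 days at 37°C, viability read by XTT reduction at 450 nm. CIC50 derived from protection against cytopathic killing.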

HIV-1 variant L100I = assay: Cytopathic cell killing assay, cross-resistance profile, infected MT-4 cells; type: cell-based
In short: (§1)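 XTT formazan absorbance (450 nm) after 6 days at 37°C measured survival of HIV-1-infected MT-4 cells treated with half-log compound dilutions in triplicate. Viruses were pre-titered to equivalent infection levels and used at an MOI killing all cells by day 6.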

HIV-1 variant Y188C = assay: as above; type: cell-based
In short: as §1

HIV-1 variant A98G = assay: as above; type: cell-based; details: isolate A9SG
In short: as §1

HIV-1 variant M184l = assay: as above; type: cell-based
In short: as §1

HIV-1 variant V108I = assay: as above; type: cell-based
In short: as §1

HIV-1 variant Y188H = assay: as above; type: cell-based
In short: as §1

HIV-1 variant L74V = assay: as above; type: cell-based; details: isolate 1.74V
In short: as §1

HIV-1 variant K101E = assay: as above; type: cell-based; details: isolate K101E
In short: as §1

HIV-1 isolate 4xAZT = assay: as above; type: cell-based; details: isolate 4XAZT
In short: as §1

HIV-1 variant V179D = assay: as above; type: cell-based; details: isolate V179D
In short: as §1

HIV-1 variant K103N = assay: as above; type: cell-based; details: for EC50: isolate K103N
In short: as §1

HIV-1 variant V106A = assay: as above; type: cell-based; details: isolate V 106A
In short: as §1

[1] = system: HIV-1 isolate 4xAZT/Y181C; assay: as above; type: cell-based; details: isolate 4XAZT /Y181C
In short: as §1

HIV-1 WT RT = target: T1, HIV-1 WT RT (Human immunodeficiency virus type 1 group M subtype B, UniProt P03366); assay: biochemical; details: for IC50: read-out: IC50
T1 construct: purified RT protein (0.015 mg/mL) was incubated in a 100 µL reaction mixture

[2] = system: HIV-1 isolate 4xAZT/L100I; assay: Cytopathic cell killing assay, cross-resistance profile, infected MT-4 cells; type: cell-based; details: isolate 4XA7T L 1001
Experimental: The various HIV isolates tested in the Figures are those corresponding to wild-type virus (NL4-3) and the other strains listed by their RT mutations. The three 4xAZT isolates included in the Figures represent AZT drug-resistant variants. […]
Briefly, in this method cells (e.g., the CEM-SS cell line, available from the NIAID AIDS Research and Reference Program [ARRRP]) were seeded at a density of 5 x 10^3 cells/well, into the wells of a 96-well microtiter plate. The cells were then infected with HIV virus (either mutant or WT), at a multiplicity of infection (MOI) previously determined to provide complete cell killing by 6 days of culture post-infection (e.g., MOI of 0.01-0.05). Each of the HIV isolates was pre-titered to induce equivalent levels of infection based on cell killing or virus production, prior to their use in these assays. A range of test compound concentrations was added to the wells in triplicate (e.g., serial half-log dilutions) to evaluate inhibition of HIV infection. Controls for each assay included drug controls (drug colorimetric control wells), drug cytotoxicity control wells (cells with drug), virus control wells (cells with virus), and cell viability controls (cells only). Positive control drugs (e.g., AZT and ddC) were also run in parallel.
After six days of incubation at 37°C, cell viability was determined spectrophotometrically at 450 nm for each well, using the metabolic reduction of XTT to a soluble colored formazan. (See, Gartner and Popovic, "Virus Isolation and Production, in Aldovini and Walker (eds.), Techniques in HIV Research, Stockton Press, NY, pp. […] [1991]; and Nara and Fischinger, "Quantitative Infectivity Assay for HIV-1 and HIV-2," Nature 332:469-470 [1988]).
The in vitro therapeutic index (TI50) was defined as the fold-difference between the EC50 and IC50.

NL4-3 (WT) = assay: as above; type: cell-based, HIV-1
In short: as §1

HIV-1 variant Y181C = assay: as above; type: cell-based; details: Human immunodeficiency virus 1, MT4, Table 10 (values in µM); isolate Y181C
In short: as §1

[3] = Human immunodeficiency virus 1, NL43, CEM-SS, Table 7, concentration reducing cell killing or virus production by 50%, HIV-1 WT
[4] = Human immunodeficiency virus 1, NL43, CEM-SS, Table 11, CEMSS/NL4-3, NRVC = reduction in viral CPE not seen (footnote)
[5] = Human immunodeficiency virus 1, MT4, Table 8, isolate 1.1001
[6] = Human immunodeficiency virus 1, MT4, Table 10 (values in µM), isolate L1001
[7] = Human immunodeficiency virus 1, MT4, Table 8, isolate Y 188C
[8] = Human immunodeficiency virus 1, MT4, Table 8
[9] = Human immunodeficiency virus 1, MT4
[10] = Human immunodeficiency virus 1, MT4, Table 8, isolate V1081
[11] = Human immunodeficiency virus 1, MT4, Table 10 (values in µM), isolate V108l
[12] = Human immunodeficiency virus 1, MT4, Table 10 (values in µM)
[13] = Table 7, WT HIV-1 RT, 1 µM drug, read-out: %inhibn (1µM)
[14] = Human immunodeficiency virus 1, NL43, MT4, Table 8, isolate N1.43
[15] = Human immunodeficiency virus 1, NL43, MT4, Table 10 (values in µM), isolate NL4-3 (WT)

Row | Compound | IC50 (HIV-1 WT RT; HIV-1 WT RT) | IC50 (HIV-1 WT RT; Table 7, HIV-1 WT RT) | IC50 (HIV-1 WT RT; Table 11, WT RT) | EC50 (WT virus (NL4-3); [3]) | EC50 (WT virus (NL4-3); [4]) | EC50 (HIV-1 variant L100I; [5]) | EC50 (HIV-1 variant L100I; [6]) | EC50 (HIV-1 variant Y188C; [7]) | EC50 (HIV-1 variant A98G; [8]) | EC50 (HIV-1 variant M184l; [9]) | EC50 (HIV-1 variant V108I; [10]) | EC50 (HIV-1 variant V108I; [11]) | EC50 (HIV-1 variant Y181C) | EC50 (HIV-1 variant Y188H; [9]) | EC50 (HIV-1 variant L74V; [8]) | EC50 (HIV-1 variant K101E; [8]) | EC50 (HIV-1 variant K101E; [12]) | EC50 (HIV-1 variant K103N; [12]) | inhibition at 1 µM (HIV-1 WT RT; [13]) | EC50 (NL4-3 (WT); [15]) | further results
1 | 4-amino-1-(2,6-difluorobenzyl)-2-(2,6-difluorophenyl)benzimidazole [compound 53] | 280 nM | 280 nM | 280 nM | – | – | – | – | – | – | – | – | – | – | – | – | – | – | – | – | – | EC50 (WT virus (NL4-3); Table 7, concentration reducing cell killing or virus production by 50%, HIV-1 WT): 460 nM; EC50 (WT virus (NL4-3); Table 11, CEMSS/NL4-3, NRVC = reduction in viral CPE not seen (footnote)): 460 nM; EC50 (HIV-1 variant L100I; Table 8, isolate 1.1001, read-out: EC50): 1.3 µM; EC50 (HIV-1 variant Y188C; Table 8, isolate Y 188C, read-out: EC50): 2.7 µM; EC50 (HIV-1 variant Y188C; Table 10 (values in µM), isolate Y188C, read-out: EC50): 2 µM; EC50 (HIV-1 variant A98G; Table 8, read-out: EC50): 1500 nM; EC50 (HIV-1 variant M184l; Table 10 (values in µM), isolate M184l, read-out: EC50): 0.65 µM; EC50 (HIV-1 variant V108I; Table 8, isolate V1081, read-out: EC50): > 20 µM; EC50 (HIV-1 variant Y188H; Table 10 (values in µM), isolate Y188H, read-out: EC50): > 50 µM; EC50 (HIV-1 variant L74V; Table 8, read-out: EC50): 300 nM; EC50 (HIV-1 variant K101E; Table 8, read-out: EC50): > 20 µM; EC50 (HIV-1 isolate 4xAZT; Table 8, read-out: EC50): 200 nM; EC50 (HIV-1 variant V179D; Table 8, read-out: EC50): 6000 nM; EC50 (HIV-1 variant K103N; Table 8, read-out: EC50): > 20 µM; EC50 (HIV-1 variant V106A; Table 8, read-out: EC50): > 20000 nM; EC50 ([1]; Table 8, read-out: EC50): > 10000 nM; %inhibn (1µM) (HIV-1 WT RT; Table 7, WT HIV-1 RT, 1 µM drug): 69%; EC50 ([2]; Table 8, read-out: EC50): 300 nM; EC50 (NL4-3 (WT); Table 8, isolate N1.43, read-out: EC50): 0.5 µM; EC50 (NL4-3 (WT); Table 10 (values in µM), isolate NL4-3 (WT), listed as NH2, read-out: EC50): 0.68 µM and 0.4 µM
2 | COc1cccc2c1nc(-c1c(F)cccc1F)n2Cc1c(F)cccc1F [compound 44, 1-(2,6-difluorobenzyl)-2-(2,6-difluorophenyl)-4-methoxylbenzimidazole] | 7.3 nM | 7.3 nM | 7.3 nM | 4.6 nM | 60 nM | 0.1 µM | 0.16 µM | 0.3 µM | 300 nM | 0.16 µM | 2.5 µM | 2.82 µM | 0.26 µM | 0.26 µM | 80 nM | 3.3 µM | 2.82 µM | > 50 µM | 85% | 0.165 µM | EC50 (WT virus (NL4-3); Human immunodeficiency virus 1, NL43, CEM-SS, cytopathic cell killing assay, HIV-1 WT): 4.6 nM; EC50 (HIV-1 isolate 4xAZT; [8]): 6000 nM; EC50 (HIV-1 variant V179D; [8]): 200 nM; EC50 (HIV-1 variant K103N; [8]): > 20 µM; activity against the K103N mutation / isolate (HIV-1 variant K103N; result in words, cytopathic cell killing assay): failed to show any activity; EC50 (HIV-1 variant V106A; [8]): 1400 nM; IC50 (HIV-1 WT RT; WT RT): 7.3 nM; EC50 (NL4-3 (WT); [14]): 0.06 µM
3 | O=[N+]([O-])c1cccc2c1nc(-c1c(F)cccc1F)n2Cc1c(F)cccc1F [compound 48, 1-(2,6-difluorobenzyl)-2-(2,6-difluorophenyl)-4-nitrobenzimidazole] | – | 1880 nM | – | 2400 nM | – | – | 0.83 µM | – | – | 3.69 µM | – | > 50 µM | > 50 µM | > 50 µM | – | – | > 50 µM | > 50 µM | 51% | 3.13 µM | –
4 | Fc1cccc(F)c1Cn1c(-c2c(F)cccc2F)nc2c(Cl)cccc21 [compound 55, 4-chloro-1-(2,6-difluorobenzyl)-2-(2,6-difluorophenyl)benzimidazole] | – | 2630 nM | 2630 nM | 440 nM | 440 nM | 0.2 µM | 0.3 µM | 5.4 µM | 5000 nM | – | 3.6 µM | 3.2 µM | 8.4 µM | – | 500 nM | > 20 µM | > 20 µM | 10.2 µM | 75% | 0.5 µM | EC50 (HIV-1 variant Y188C; Human immunodeficiency virus 1, MT4, Table 10 (values in µM), isolate Y188C): 3.4 µM; EC50 (HIV-1 isolate 4xAZT; [8]): 200 nM; EC50 (HIV-1 variant V179D; [8]): 800 nM; EC50 (HIV-1 variant K103N; [8]): > 20 µM; EC50 (HIV-1 variant V106A; [8]): > 10000 nM; EC50 [1, 8]: > 20000 nM; inhibition at 1 µM (HIV-1 WT RT; Table 6, WT HIV-1 RT, 1 µM drug, average of two experiments done in triplicates, read-out: %Inhibn (1µM)): 75%; EC50 [2, 8]: 200 nM; EC50 (NL4-3 (WT); [14]): 0.1 µM
